One series has as its system HBV. Kind of series: Anti HBV activity in vitro, viral DNA from HepG2.2.15 cells quantified by qPCR. Format: cell-based. As to conditions: Hepatitis B virus, qPCR of viral DNA in supernatant, read-out: EC50 against HBV replication. Here is the method: Test 1: Test Method of EC50 of Anti HBV
HBV Cell Line and Culture Conditions
HepG2.2.15 (SELLS, PNAS, 1987 and SELLS, JV, 1988) chromosomes have an integrated complete HBV genome, and stably express viral RNA and viral protein. HepG2.2.15 cells can secrete mature HBV particles, HBsAg and HBeAg to medium. HepG2.2.15 cells were cultured in DMEM containing 10% fetal bovine serum, 100 U/mL penicillin, 100 U/mL streptomycin, 1% non essential amino acid, 1 mM sodium pyruvate and 300 µg/mL G418.
Viral particles DNA secreted from HepG2.2.15 cells can be quantified by qPCR, and the effect of the compound on viral replication can be detected.
Test of Anti HBV Activity In Vitro
8000 HepG 2.2.15 cells per well were seeded into a 96-well plate, the plate was cultured at 37° C. and 5% CO2 for 3 days till the cells grew to full wells. Old liquid medium can be removed and replaced with new medium (200 μL) on day 0.
Formulating the compound and treating the cells in the experiment of anti virus: the compound was dissolved in DMSO to a concentration of 30 mM, and then the compound solution was diluted with DMSO to a concentration of […], and then eight dilutions at 4 fold were performed, the highest concentration is 800 μM. The serial diluted compound was added to the above plate at 1 μL per well, the highest final concentration in the experiment is 4 μM (200 fold dilution). TDF (tenofovir dipiroxil fumarate, Selleck, Cat S1400) has a highest concentration of 4 μM as a positive control. 1 μL of DMSO was added in to the positive control well at a final concentration of 0.5%, TDF was added in to the positive control well at a final concentration of 1 μM.
Detection of Viral Genomic DNA by qPCR
Primer: HBV-For-202, […]; HBV-Rev-315, […]. Copies of virus can be calculated using a standard curve plotted by using plasmid containing HBV genome and using SYBR Premix Ex Taq II Takara DRR081S kit and 1 μL cell culture supernatant as a template. EC50 values of the compound on viral replication were calculated by a four parametric nonlinear regression model using Graphpad Prism 5 software to manage concentration—viral copy number.
For orientation: In qPCR the cycle at which signal appears reflects the starting amount.

A short description of series [1]: Cytotoxicity in HepG2.2.15 cells (CellTiter Glo). Format: cell-based. Conditions: human, highest concentration 150 μM. On the procedure:
Test 2: Cytotoxicity and Selectivity Index
Methods of Testing Cytotoxicity and Selectivity Index
The serial diluted compound was added to a 384 wells plate at 50 μL HepG2.2.15 cell per well (3000 cells per well), the highest final concentration in the experiment is 150 μM (200 fold dilution). The plate was cultured at 37° C. in an incubator with C02 for 4 days, and cytotoxicity of the compound was detected using CellTiter Glo agent.
The cytotoxicity of the compound was calculated using the following formulate, cytotoxicity (%)=100−(detection value/mean of DMSO control wells values×100). CC50 values were calculated by a four parametric nonlinear regression model using Graphpad Prism 5 software to manage concentration−cytotoxicity (%). […]

Drawing on patent US11261190B2, “Dihydropyrimidine compounds and uses thereof in medicine” (SUNSHINE LAKE PHARMA CO., LTD., priority 2017, dated 2022), this text covers EC50 and CC50 for 19 compounds.

For the compound `COCCN1C[C@@H](N2C[C@@H]3CN(CC4=C(C(=O)OC)[C@H](c5ccc(F)cc5Cl)N=C(c5nccs5)N4)CCN3C2=O)C[C@@H]1C(=O)O` [Example 7, (2R,4S)-4-((S)-7-(((R)-6-(2-chloro-4-fluorophenyl)-5-(methoxycarbonyl)-2-(thiazol-2-yl)-3,6-dihydropyrimidin-4-yl)methyl)-3-oxohexahydroimidazo[1,5-a]pyrazin-2(3H)-yl)-1-(2-methoxyethyl)pyrrolidine-2-carboxylic Acid], the EC50 – broadly, the concentration at which the effect is half-maximal – with HBV was 56 nM.
In the case of `COC(=O)C1=C(CN2CCN3C(=O)N([C@H](Cc4ccccc4)C(=O)O)CC3C2)NC(c2nccs2)=N[C@H]1c1ccc(F)cc1Cl` (stereo partly drawn) [Example 11, (2R)-2-(7-(((R)-6-(2-chloro-4-fluorophenyl)-5-(methoxycarbonyl)-2-(thiazol-2-yl)-3,6-dihydropyrimidin-4-yl)methyl)-3-oxohexahydroimidazo[1,5-a]pyrazin-2(3H)-yl)-3-phenylpropionic Acid], the EC50 in the series on HBV is 32 nM.
Take `COC(=O)C1=C(CN2CCN3C(=O)N(C(CC(=O)O)c4ccccc4)C[C@@H]3C2)NC(c2nccs2)=N[C@H]1c1ccc(F)cc1Cl` (stereo partly drawn) [Example 12, 3-((S)-7-(((R)-6-(2-chloro-4-fluorophenyl)-5-(methoxycarbonyl)-2-(thiazol-2-yl)-3,6-dihydropyrimidin-4-yl)methyl)-3-oxohexahydroimidazo[1,5-a]pyrazin-2(3H)-yl)-3-phenylpropionic Acid]: the EC50 with HBV came out at 37 nM.
With `COC(=O)C1=C(CN2CCN3C(=O)N(c4ccc(C(C)(C)C(=O)O)cc4)C[C@@H]3C2)NC(c2nccs2)=N[C@H]1c1ccc(F)cc1Cl` [Example 15, 2-(4-((S)-7-(((R)-6-(2-chloro-4-fluorophenyl)-5-(methoxycarbonyl)-2-(thiazol-2-yl)-3,6-dihydropyrimidin-4-yl)methyl)-3-oxohexahydroimidazo[1,5-a]pyrazin-2(3H)-yl)phenyl)-2-methylpropionic Acid], in series [1], the CC50 (as a rule, the concentration at which the toxic effect on the cells reaches its halfway point) at 4 days is above 150000 nM. The EC50 in the series with HBV was determined as 5 nM.
In series [1], `COC(=O)C1=C(CN2CCN3C(=O)N(c4ccc(C(CC(=O)O)NC(=O)OC(C)(C)C)cc4)C[C@@H]3C2)NC(c2nccs2)=N[C@H]1c1ccc(F)cc1Cl` (stereo partly drawn) [Example 16, 3-((tert-butoxycarbonyl)amino)-3-(4-((S)-7-(((R)-6-(2-chloro-4-fluorophenyl)-5-(methoxycarbonyl)-2-(thiazol-2-yl)-3,6-dihydropyrimidin-4-yl)methyl)-3-oxohexahydroimidazo[1,5-a]pyrazin-2 (3H)-yl)phenyl)propanoic Acid] yielded a CC50 at 4 days above 150000 nM. In addition, in the series with HBV, the EC50 amounted to 14 nM.
In series [1], `COC(=O)C1=C(CN2CCN3C(=O)N(c4ccc(CC(C)C(=O)O)cc4)C[C@@H]3C2)NC(c2nccs2)=N[C@H]1c1ccc(F)cc1Cl` (stereo partly drawn) [Example 18, 3-(4-((S)-7-(((R)-6-(2-chloro-4-fluorophenyl)-5-(methoxycarbonyl)-2-(thiazol-2-yl)-3,6-dihydropyrimidin-4-yl)methyl)-3-oxohexahydroimidazo[1,5-a]pyrazin-2(3H)-yl)phenyl)-2-methylpropionic Acid] yielded a CC50 at 4 days above 150000 nM. For the same compound, in the series with HBV, the EC50 was found to be 4 nM.
With `COC(=O)C1=C(CN2CCN3C(=O)N(c4nc(CCC(=O)O)cs4)C[C@@H]3C2)NC(c2nccs2)=N[C@H]1c1ccc(F)cc1Cl` [Example 20, 3-(2-((S)-7-(((R)-6-(2-chloro-4-fluorophenyl)-5-(methoxycarbonyl)-2-(thiazol-2-yl)-3,6-dihydropyrimidin-4-yl)methyl)-3-oxohexahydroimidazo[1,5-a]pyrazin-2(3H)-yl)thiazol-4-yl)propionic Acid], the CC50 at 4 days in series [1] is above 150000 nM. In addition, the EC50 in the series with HBV was 5 nM.
On the same counts, the results for `COC(=O)C1=C(CN2CCN3C(=O)N(Cc4ccc(CC(=O)O)cc4)C[C@@H]3C2)NC(c2nccs2)=N[C@H]1c1ccc(F)cc1Cl` [Example 21, 2-(4-(((S)-7-(((R)-6-(2-chloro-4-fluorophenyl)-5-(methoxycarbonyl)-2-(thiazol-2-yl)-3,6-dihydropyrimidin-4-yl)methyl)-3-oxohexahydroimidazo[1,5-a]pyrazin-2(3H)-yl)methyl)phenyl)acetic Acid] are 110000 nM and 22 nM.
Turning to `COC(=O)C1=C(CN2CCN3C(=O)N(c4ccc(CCC(=O)O)cn4)C[C@@H]3C2)NC(c2nccs2)=N[C@H]1c1ccc(F)cc1Cl` [Example 35, 3-(6-((S)-7-(((R)-6-(2-chloro-4-fluorophenyl)-5-(methoxycarbonyl)-2-(thiazol-2-yl)-3,6-dihydropyrimidin-4-yl)methyl)-3-oxohexahydroimidazo[1,5-a]pyrazin-2(3H)-yl)pyridin-3-yl)propionic Acid], in the series with HBV, the EC50 was 8 nM.
Regarding `COC(=O)C1=C(CN2CCN3C(=O)N(c4cncc(CCC(=O)O)c4)C[C@@H]3C2)NC(c2nccs2)=N[C@H]1c1ccc(F)cc1Cl` [Example 36, 3-(5-((S)-7-(((R)-6-(2-chloro-4-fluorophenyl)-5-(methoxycarbonyl)-2-(thiazol-2-yl)-3,6-dihydropyrimidin-4-yl)methyl)-3-oxohexahydroimidazo[1,5-a]pyrazin-2(3H)-yl)pyridin-3-yl)propionic Acid], the CC50 at 4 days in series [1] is above 150000 nM.
In the case of `COC[C@@H]1[C@H]2CN(c3ccc(CCC(=O)OC)cc3)C(=O)N2CCN1CC1=C(C(=O)OC)[C@H](c2ccc(F)cc2Cl)N=C(c2nccs2)N1` [Example 50B], the EC50 with HBV came out at 8 nM.
Regarding `COC[C@H]1[C@@H]2CN(c3ccc(CCC(=O)O)cc3)C(=O)N2CCN1CC1=C(C(=O)OC)[C@H](c2ccc(F)cc2Cl)N=C(c2nccs2)N1` [Example 51A], the CC50 at 4 days in series [1] was above 150000 nM.
`CCOC(=O)C1=C(CN2CCN3C(=O)N(c4ccc(/C=C(\C)C(=O)O)cc4)C[C@@H]3C2)NC(c2nccs2)=N[C@H]1c1ccc(F)cc1Br` [Example 55, (E)-3-(4-((S)-7-(((R)-6-(2-bromo-4-fluorophenyl)-5-(ethoxycarbonyl)-2-(thiazol-2-yl)-3,6-dihydropyrimidin-4-yl)methyl)-3-oxohexahydroimidazo[1,5-a]pyrazin-2(3H)-yl)phenyl)-2-methylacrylic Acid]: in the series with HBV, the EC50 amounted to 9 nM.
In the case of `CCOC(=O)C1=C(CN2CCN3C(=O)N(c4ccc(/C(C)=C/C(=O)O)cc4)C[C@@H]3C2)NC(c2nccs2)=N[C@H]1c1ccc(F)cc1Br` [Example 56, (E)-3-(4-((S)-7-(((R)-6-(2-bromo-4-fluorophenyl)-5-(ethoxycarbonyl)-2-(thiazol-2-yl)-3,6-dihydropyrimidin-4-yl)methyl)-3-oxohexahydroimidazo[1,5-a]pyrazin-2(3H)-yl)phenyl)-2-butenoic Acid], in the series with HBV, the EC50 came out at 12 nM.
On to `CCOC(=O)C1=C(CN2CCN3C(=O)N(c4ccc(CCC(=O)O)cc4)C[C@@H]3[C@H]2COC)NC(c2nccs2)=N[C@H]1c1ccc(F)cc1Br` [Example 57, 3-(4-((8S,8aR)-7-(((R)-6-(2-bromo-4-fluorophenyl)-5-(ethoxycarbonyl)-2-(thiazol-2-yl)-3,6-dihydropyrimidin-4-yl)methyl)-8-(methoxymethyl)-3-oxohexahydroimidazo[1,5-a]pyrazin-2(3H)-yl)phenyl)propionic Acid], for which, in the series on HBV, the EC50 was 12 nM.
In the case of `COC(=O)CCc1ccc(N2C[C@@H]3[C@@H](CO)N(CC4=C(C(=O)OC)[C@H](c5ccc(F)cc5Cl)N=C(c5nccs5)N4)CCN3C2=O)cc1` [Example 58B], the EC50 in the series with HBV came to 14 nM.
On to `COC(=O)C1=C(CN2CCN3C(=O)N(c4ccc(CCC(=O)O)cc4)C[C@H]3[C@@H]2CO)NC(c2nccs2)=N[C@H]1c1ccc(F)cc1Cl` [Example 59A], for which the CC50 at 4 days in series [1] was above 150000 nM.
Consider `COC[C@@H]1[C@H]2CN(c3ccc(C(C)(C)C(=O)OC)cc3)C(=O)N2CCN1CC1=C(C(=O)OC)[C@H](c2ccc(F)cc2Cl)N=C(c2nccs2)N1` [Example 60B], for which, in the series on HBV, the EC50 was 4 nM.
Same read-out and setting: for `COC[C@@H]1[C@H]2CN(c3ccc(C(C)(C)C(=O)O)cc3)C(=O)N2CCN1CC1=C(C(=O)OC)[C@H](c2ccc(F)cc2Cl)N=C(c2nccs2)N1` [Example 61B] the value was 5 nM.
